Where “and” joins values, the source holds several entries; their conditions need not be identical. Identical values can stand only once. Toxic doses and inconclusive results are not listed.
Test system: P388 leukemia ip, CD2F1 mice, survival T/C
Test: NCI In Vivo Anticancer Drug Screen. Data for tumor model P388 Leukemia (intraperitoneal) in CD2F1 (CDF1) mice
Settings: endpoint: median survival time, higher = longer survival
Method in brief: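 Mice carrying the transplanted tumor received test compound or vehicle. Survival was recorded in each group, and the value is the treated-group measurement divided by that of the vehicle-treated control group.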

[1] = dose: 50.0 mg/kg/injection, schedule: Q01DX009 (ip), vehicle: saline with Tween-80
[2] = dose: 100.0 mg/kg/injection, schedule: Q01DX009 (ip), vehicle: saline with Tween-80
[3] = dose: 200.0 mg/kg/injection, schedule: Q01DX009 (ip), vehicle: saline with Tween-80
[4] = dose: 50.0 mg/kg/injection, schedule: Q01DX005 (ip), vehicle: saline with Tween-80
[5] = dose: 100.0 mg/kg/injection, schedule: Q01DX005 (ip), vehicle: saline with Tween-80
[6] = dose: 200.0 mg/kg/injection, schedule: Q01DX005 (ip), vehicle: saline with Tween-80
[7] = dose: 100.0 mg/kg/injection, schedule: Q01DX001 (ip), vehicle: saline with Tween-80
[8] = dose: 200.0 mg/kg/injection, schedule: Q01DX001 (ip), vehicle: saline with Tween-80
[9] = dose: 50.0 mg/kg/injection, schedule: Q01DX009 (ip), vehicle: Klucel (hydroxypropylcellulose) (HPC)
[10] = dose: 100.0 mg/kg/injection, schedule: Q01DX009 (ip), vehicle: Klucel (hydroxypropylcellulose) (HPC)
[11] = dose: 200.0 mg/kg/injection, schedule: Q01DX009 (ip), vehicle: Klucel (hydroxypropylcellulose) (HPC)
[12] = dose: 60.0 mg/kg/injection, schedule: Q01DX005 (ip), vehicle: saline with Tween-80
[13] = dose: 240.0 mg/kg/injection, schedule: Q01DX005 (ip), vehicle: saline with Tween-80
[14] = dose: 12.5 mg/kg/injection, schedule: Q01DX009 (ip), vehicle: Klucel (hydroxypropylcellulose) (HPC)
[15] = dose: 25.0 mg/kg/injection, schedule: Q01DX009 (ip), vehicle: Klucel (hydroxypropylcellulose) (HPC)
[16] = dose: 50.0 mg/kg/injection, schedule: Q01DX009 (ip), vehicle: saline
[17] = dose: 100.0 mg/kg/injection, schedule: Q01DX009 (ip), vehicle: saline
[18] = dose: 200.0 mg/kg/injection, schedule: Q01DX009 (ip), vehicle: saline
[19] = dose: 12.5 mg/kg/injection, schedule: Q01DX005 (ip), vehicle: Klucel (hydroxypropylcellulose) (HPC)
[20] = dose: 25.0 mg/kg/injection, schedule: Q01DX005 (ip), vehicle: Klucel (hydroxypropylcellulose) (HPC)
[21] = dose: 25.0 mg/kg/injection, schedule: Q01DX009 (ip), vehicle: saline with Tween-80

OC1(C#Cc2ccccc2)c2ccccc2C(O)(C#Cc2ccccc2)c2cnccc21 (configuration not stated)
T/C [1]: 95 % of control | T/C [2]: 93 % of control | T/C [3]: 87 % of control

CCOC(=O)c1cc(N)c(N2CCCC2)cc1Cl
T/C (dose: 90.0 mg/kg/injection, schedule: Q04DX003 (ip), vehicle: saline with Tween-80): 100 % of control | T/C (dose: 133.0 mg/kg/injection, schedule: Q04DX003 (ip), vehicle: saline with Tween-80): 100 % of control | T/C (dose: 200.0 mg/kg/injection, schedule: Q04DX003 (ip), vehicle: saline with Tween-80): 90 % of control | T/C (dose: 300.0 mg/kg/injection, schedule: Q04DX003 (ip), vehicle: saline with Tween-80): 95 % of control

O=C1C2CC3OC3CC2C(=O)N1CCN1C(=O)C2CC3OC3CC2C1=O (configuration not stated)
T/C [4]: 100 % of control | T/C [5]: 104 % of control | T/C [6]: 104 % of control

NC(=O)c1c(-c2ccccc2)nc2sccn12
T/C (dose: 100.0 mg/kg/injection, schedule: Q01DX001 (ip), vehicle: Klucel (hydroxypropylcellulose) (HPC)): 98 % of control | T/C (dose: 200.0 mg/kg/injection, schedule: Q01DX001 (ip), vehicle: Klucel (hydroxypropylcellulose) (HPC)): 90 % of control | T/C (dose: 400.0 mg/kg/injection, schedule: Q01DX001 (ip), vehicle: Klucel (hydroxypropylcellulose) (HPC)): 92 % of control

Nc1[nH]c(=S)[nH]c(=O)c1N=Nc1ccccc1
T/C [7]: 98 % of control | T/C [8]: 102 % of control | T/C (dose: 400.0 mg/kg/injection, schedule: Q01DX001 (ip), vehicle: saline with Tween-80): 117 % of control

CC(C(O)c1ccc2cc(Br)c3ccccc3c2c1)N(C)C (configuration not stated)
T/C [4]: 100 % of control | T/C [5]: 91 % of control

C1CC[N-]CC1.C1CC[N-]CC1.C1CC[N-]CC1.C1CC[N-]CC1.N#C[S-].N#C[S-].[Ni]
T/C (dose: 5.0 mg/kg/injection, schedule: Q04DX003 (ip), vehicle: saline with Tween-80): 100 % of control | T/C (dose: 10.0 mg/kg/injection, schedule: Q04DX003 (ip), vehicle: saline with Tween-80): 100 % of control

Cn1ccc(=Nc2ccc(NC(=O)c3ccc(N=c4ccn(C)c5ccc([N+](=O)[O-])cc45)cc3)cc2)cc1
T/C (dose: 3.13 mg/kg/injection, schedule: Q01DX009 (ip), vehicle: other): 160 % of control | T/C (dose: 6.25 mg/kg/injection, schedule: Q01DX009 (ip), vehicle: other): 188 % of control | T/C (dose: 12.5 mg/kg/injection, schedule: Q01DX009 (ip), vehicle: other): 182 % of control | T/C (dose: 25.0 mg/kg/injection, schedule: Q01DX009 (ip), vehicle: other): 179 % of control and 220 % of control | T/C (dose: 50.0 mg/kg/injection, schedule: Q01DX009 (ip), vehicle: other): 168 % of control | T/C (dose: 100.0 mg/kg/injection, schedule: Q01DX009 (ip), vehicle: other): 97 % of control

CC1(C)CC(C#N)CC(C)(C)N1O
T/C (dose: 100.0 mg/kg/injection, schedule: Q04DX003 (ip), vehicle: Klucel (hydroxypropylcellulose) (HPC)): 100 % of control

CSc1nc2ccc(N=Cc3ccccc3O)cc2s1
T/C [9]: 91 % of control | T/C [10]: 89 % of control | T/C [11]: 100 % of control

O=C(O)c1cccnc1C(=O)Nc1cccc2ccccc12
T/C (dose: 15.0 mg/kg/injection, schedule: Q01DX005 (ip), vehicle: saline with Tween-80): 102 % of control | T/C (dose: 30.0 mg/kg/injection, schedule: Q01DX005 (ip), vehicle: saline with Tween-80): 98 % of control | T/C [12]: 99 % of control (2×) and 93 % of control | T/C [13]: 86 % of control and 92 % of control

COC(=O)CCCCC(=O)OC
T/C (dose: 100.0 mg/kg/injection, schedule: Q04DX003 (ip), vehicle: saline): 109 % of control | T/C (dose: 200.0 mg/kg/injection, schedule: Q04DX003 (ip), vehicle: saline): 109 % of control | T/C (dose: 400.0 mg/kg/injection, schedule: Q04DX003 (ip), vehicle: saline): 109 % of control

CC(C)OC(=S)SCC(=O)c1ccc(Br)cc1
T/C [1]: 114 % of control | T/C [2]: 107 % of control | T/C [3]: 106 % of control

C/C=C(/C)C(=O)OC/C(=C/C)C(=O)OC1C=CC(C)(C)C(C=O)=C1C (configuration not stated)
T/C [14]: 93 % of control | T/C [15]: 93 % of control | T/C [10]: 93 % of control

CC(=N/NC(=S)NCC(C)C)/C(C)=N\Nc1ccc(Cl)cc1
T/C [16]: 97 % of control | T/C [17]: 106 % of control | T/C [18]: 99 % of control

Oc1ccc2ccccc2c1/C=C/c1ccc2c(Br)cc(Br)c(O)c2n1
T/C [4]: 99 % of control | T/C [5]: 106 % of control | T/C [6]: 88 % of control

S=C=NCCCCCCCCCCCCN=C=S
T/C (dose: 3.12 mg/kg/injection, schedule: Q01DX009 (ip), vehicle: saline with Tween-80): 112 % of control and 115 % of control | T/C (dose: 6.25 mg/kg/injection, schedule: Q01DX009 (ip), vehicle: saline with Tween-80): 106 % of control and 120 % of control

O=C(Nc1ccc(Oc2ccc(Cl)cc2)c(Cl)c1)c1cc(I)cc(I)c1O
T/C [19]: 96 % of control | T/C [20]: 109 % of control | T/C (dose: 50.0 mg/kg/injection, schedule: Q01DX005 (ip), vehicle: Klucel (hydroxypropylcellulose) (HPC)): 101 % of control and 115 % of control

Cc1ccc(NC(=O)Oc2ccc(C#N)cc2)c(C)c1
T/C [12]: 92 % of control | T/C (dose: 120.0 mg/kg/injection, schedule: Q01DX005 (ip), vehicle: saline with Tween-80): 95 % of control | T/C [13]: 101 % of control

N=C(N)SCCCCCCCCCCSC(=N)N
T/C (dose: 12.5 mg/kg/injection, schedule: Q01DX009 (ip), vehicle: saline with Tween-80): 100 % of control and 90 % of control | T/C [21]: 98 % of control and 100 % of control | T/C [1]: 106 % of control

O=C1C=C(O)C(=O)C(CC2=C(O)C(=O)C=C(O)C2=O)=C1O
T/C [19]: 101 % of control and 90 % of control | T/C [20]: 86 % of control and 90 % of control and 95 % of control

CCCCC/C=C/C(=O)OC
T/C (dose: 100.0 mg/kg/injection, schedule: Q04DX002 (ip), vehicle: saline with Tween-80): 100 % of control | T/C (dose: 200.0 mg/kg/injection, schedule: Q04DX002 (ip), vehicle: saline with Tween-80): 100 % of control | T/C (dose: 400.0 mg/kg/injection, schedule: Q04DX002 (ip), vehicle: saline with Tween-80): 100 % of control

O=NN(CCCl)C(=O)NC1CCN(Cc2ccccc2)CC1
T/C (dose: 12.5 mg/kg/injection, schedule: Q04DX003 (ip), vehicle: other): 154 % of control | T/C (dose: 12.5 mg/kg/injection, schedule: Q04DX003 (ip), vehicle: water): 184 % of control | T/C (dose: 25.0 mg/kg/injection, schedule: Q04DX003 (ip), vehicle: other): 183 % of control | T/C (dose: 25.0 mg/kg/injection, schedule: Q04DX003 (ip), vehicle: water): 225 % of control | T/C (dose: 50.0 mg/kg/injection, schedule: Q04DX003 (ip), vehicle: other): 287 % of control | T/C (dose: 50.0 mg/kg/injection, schedule: Q04DX003 (ip), vehicle: water): 281 % of control | T/C (dose: 100.0 mg/kg/injection, schedule: Q04DX003 (ip), vehicle: other): 361 % of control

CC(C)(c1ccccc1)c1ccc(O)cc1
T/C [21]: 100 % of control | T/C [1]: 100 % of control | T/C [2]: 100 % of control | T/C (dose: 100.0 mg/kg/injection, schedule: Q04DX003 (ip), vehicle: saline with Tween-80): 90 % of control

CCC[As](C)SCC1OC(OC(C)=O)C(OC(C)=O)C(OC(C)=O)C1OC(C)=O (configuration not stated)
T/C [1]: 110 % of control | T/C [2]: 102 % of control | T/C [3]: 118 % of control

O=C1C2C3C=CC(C3)C2C(=O)N1c1ccc2nc(SC3C=CCCC3)sc2c1 (configuration not stated)
T/C [14]: 100 % of control | T/C [15]: 106 % of control | T/C [9]: 99 % of control and 97 % of control | T/C [11]: 88 % of control

CSC(=Nc1ccc(N(C)C)cc1)NC#N
T/C [9]: 106 % of control | T/C [10]: 103 % of control | T/C [11]: 92 % of control

O=C(O)/C(=C\c1c(Cl)n(-c2ccccc2)c2ccccc12)NC(=O)c1ccccc1
T/C [7]: 92 % of control | T/C [8]: 88 % of control

Cc1noc(N)c1C
T/C (dose: 25.0 mg/kg/injection, schedule: Q01DX009 (ip), vehicle: saline): 98 % of control | T/C [16]: 98 % of control | T/C [17]: 98 % of control | T/C [18]: 95 % of control

— PubChem BioAssay AID330 (DTP/NCI, 2004)
